Reference: ChEMBL document CHEMBL1208717, “Antimalarial 3-arylamino-6-benzylamino-1,2,4,5-tetrazines” (Bioorg Med Chem Lett, 2010)
“And” between values parts separate entries of the source, which are not always exact repeats. Identical values can stand only once.

Tests used:
Plasmodium falciparum [1] = assay: Antimalarial activity against erythrocytic stage of Plasmodium falciparum 3D7; type: functional, organism-based
Trypanosoma cruzi = assay: Antitrypanosomal activity against amastigote stage of Trypanosoma cruzi Tulahuen C2C4; type: functional, organism-based; settings: Tulahaen C2C4
[2] = system: Trypanosoma brucei rhodesiense; assay: Antitrypanosomal activity against bloodstream form of Trypanosoma brucei rhodesiense STIB 900; type: functional, organism-based
Leishmania infantum = assay: Antileishmanial activity against amastigote stage of Leishmania infantum; type: functional, organism-based
Plasmodium falciparum [3] = assay: Antimalarial activity against erythrocytic stage of chloroquine-resistant Plasmodium falciparum Dd2; type: functional, organism-based
[4] = Cytotoxicity against human HEK cells at 29 uM; type: cell-based; settings: hek293, 29 µM
L6 = assay: Cytotoxicity against rat L6 cells; type: cell-based
[5] = Cytotoxicity against human HEK cells at 115 uM; type: cell-based; settings: hek293, 115 µM
Plasmodium falciparum [6] = assay: Antimalarial activity against erythrocytic stage of Plasmodium falciparum 3D7 at 115 uM; type: functional, organism-based
Plasmodium falciparum [7] = assay: Antimalarial activity against erythrocytic stage of chloroquine-resistant Plasmodium falciparum Dd2 at 115 uM; type: functional
Plasmodium falciparum [8] = assay: Antimalarial activity against erythrocytic stage of Plasmodium falciparum 3D7 at 38 uM; type: functional, organism-based
[9] = Cytotoxicity against human HEK cells at 38 uM; type: cell-based; settings: hek293, 38 µM
[10] = Cytotoxicity against human HEK cells; type: cell-based; settings: HEK293
[11] = Plasmodium falciparum, Dd2, read-out: EC50

Clc1ccc(Nc2nnc(NCc3ccccc3)nn2)cc1
EC50 (Plasmodium falciparum [1]): 440 nM and 1100 nM | EC50 (Trypanosoma cruzi): 15 µM | EC50 [2]: > 32 µM | EC50 (Leishmania infantum): 16 µM | EC50 (Plasmodium falciparum [3]; [11]): 1.1 µM | Activity [4]: 58% | IC50 (L6): > 32 µM

Clc1ccc(Nc2nnc(NCCc3ccccc3)nn2)cc1
Activity [5]: Non-toxic | Activity (Plasmodium falciparum [6]): 85% | Activity (Plasmodium falciparum [7]): 88%

CC(Nc1nnc(Nc2ccc(Cl)cc2)nn1)c1ccccc1 (configuration not stated)
EC50 (Plasmodium falciparum [8]): Not Active | Activity [9]: Non-toxic

CNc1nnc(NCc2ccccc2)nn1
Activity [5]: Non-toxic | EC50 (Plasmodium falciparum [6]): Not Active

CCCCNc1nnc(NCc2ccccc2)nn1
Activity [5]: Non-toxic | EC50 (Plasmodium falciparum [6]): Not Active

c1ccc(CNc2nnc(Nc3ccccc3)nn2)cc1
Activity [5]: Non-toxic | EC50 (Plasmodium falciparum [6]): Not Active

CN(c1ccc(Cl)cc1)c1nnc(NCc2ccccc2)nn1
EC50 (Plasmodium falciparum [1]; Plasmodium falciparum, 3D7): 2400 nM | EC50 (Plasmodium falciparum [3]; [11]): 3.5 µM | IC50 [10]: 12 µM

CN(C)CCN(c1ccc(Cl)cc1)c1nnc(NCc2ccccc2)nn1
EC50 (Plasmodium falciparum [1]; Plasmodium falciparum, 3D7): 13000 nM | EC50 (Plasmodium falciparum [3]; [11]): 20 µM | IC50 [10]: 38 µM

CN(C)CCN(Cc1ccccc1)c1nnc(N(CCN(C)C)c2ccc(Cl)cc2)nn1
Activity [5]: Non-toxic | EC50 (Plasmodium falciparum [6]): Not Active

CN(C)CCOc1cccc(Nc2nnc(NCc3ccccc3)nn2)c1
EC50 (Plasmodium falciparum [1]; Plasmodium falciparum, 3D7): 15000 nM | EC50 (Plasmodium falciparum [3]; [11]): 13 µM | Activity [9]: 52%

CN(C)CCOc1cccc(CNc2nnc(Nc3ccc(Cl)cc3)nn2)c1
EC50 (Plasmodium falciparum [1]; Plasmodium falciparum, 3D7): 5000 nM | EC50 (Plasmodium falciparum [3]): 6 µM | IC50 [10]: 21 µM

COc1nncc(-c2cnnc(SC)n2)n1
EC50 (Plasmodium falciparum [1]; Plasmodium falciparum, 3D7): 180 nM | EC50 (Trypanosoma cruzi): 16 µM | EC50 [2]: 5.7 µM | EC50 (Leishmania infantum): 8.6 µM | IC50 (L6): 33 µM
